Key:
activated T-lymphocytes = assay: Cellular assay, primary T-lymphocytes activated with CD3/CD28 Dynabeads; assay type: cell-based, human
Description: (§1) Cellular Assay and IC50 Value Determination
(§2) Primary T-lymphocytes are isolated from donated human blood and thereafter activated with CD3/CD28 Dynabeads. The T-lymphocytes are treated with an MTH1 inhibitor, positive control or vehicle for 24-96 hrs. Cell viability can be measured by using standard assays, such as for instance a resazurin assay. In some experiments, the cells are stained with Cell Trace Violet at the start of the culture. The dye is diluted as the cells divide and gives a measurement of cell proliferation (see FIG. 1 for an example).

MTH1 = MTH1 (Homo sapiens, UniProt P36639); assay: MTH1 enzymatic assay (malachite green, coupled to pyrophosphatase); assay type: biochemical; details: dGTP 100 μM, MTH1 6 nM; 96- or 384-well format; read-out: IC50
[1] = system: unactivated T-lymphocytes; assay: Cellular assay, unactivated primary T-lymphocytes; assay type: cell-based, human
Description: as §1
as §2, with “The” for “Primary T-lymphocytes are isolated from donated human blood and thereafter activated with CD3/CD28 Dynabeads. The”

Structure (SMILES) | effect on activated T-lymphocytes (FIG. 1) (activated T-lymphocytes) | IC50 (MTH1) | effect on unactivated T-lymphocytes (FIG. 1) [1]
Cc1c(Cl)cccc1-c1cc(NCCc2ccc(S(N)(=O)=O)cc2)nc(N)n1 [Example 297, 4-(2-{[2-amino-6-(3-chloro-2-methylphenyl)pyrimidin-4-yl]amino}ethyl)benzene-1-sulfonamide] | selectively kills | < 200 nM | unaffected
Cc1cc(C[S+]([O-])CCNc2cc(-c3cccc(Cl)c3C)nc(N)n2)no1 (stereo not drawn) [Example 725, 6-(3-chloro-2-methyl-phenyl)-N4-[2-[(5-methylisoxazol-3-yl)methylsulfinyl]ethyl]pyrimidine-2,4-diamine] |  | 2000 to 10000 nM | 
Cc1c(Cl)cccc1-c1cc(NCCc2ccc(O)c(O)c2)nc(N)n1 [Example 727, 4-[2-[[2-amino-6-(3-chloro-2-methyl-phenyl)pyrimidin-4-yl]amino]ethyl]benzene-1,2-diol] |  | < 200 nM | 
Cc1c(Cl)cccc1-c1cc(NCCc2cc(O)c(O)c(O)c2)nc(N)n1 [Example 728, 5-[2-[[2-amino-6-(3-chloro-2-methyl-phenyl)pyrimidin-4-yl]amino]ethyl]benzene-1,2,3-triol] |  | < 200 nM | 
C=C(C)CNc1cc(-c2cccc(Cl)c2C)nc(N)n1 [Example 729, 6-(3-chloro-2-methyl-phenyl)-N4-(2-methylallyl)pyrimidine-2,4-diamine] |  | < 200 nM | 
COC(=O)C1CCC(CNc2cc(-c3cccc(Cl)c3C)nc(N)n2)CC1 (stereo not drawn) [Example 731, methyl 4-[[[2-amino-6-(3-chloro-2-methyl-phenyl)pyrimidin-4-yl]amino]methyl]cyclohexanecarboxylate] |  | < 200 nM | 
Cc1c(Cl)cccc1-c1cc(NCCc2cccnc2)nc(N)n1 [Example 733, 6-(3-chloro-2-methyl-phenyl)-N4-[2-(3-pyridyl)ethyl]pyrimidine-2,4-diamine] |  | < 200 nM | 
Cc1c(Cl)cccc1-c1cc(NCCc2cnccn2)nc(N)n1 [Example 735, 6-(3-chloro-2-methyl-phenyl)-N4-(2-pyrazin-2-ylethyl)pyrimidine-2,4-diamine] |  | < 200 nM | 
Cc1c(Cl)cccc1-c1cc(NCCc2ccc(Br)cc2)nc(N)n1 [Example 736, N4-[2-(4-bromophenyl)ethyl]-6-(3-chloro-2-methylphenyl)pyrimidine-2,4-diamine] |  | < 200 nM | 
Cc1c(Cl)cccc1-c1nc(N)nc2c1CCN2 [Example 742, 4-(3-chloro-2-methylphenyl)-5H,6H,7H-pyrrolo[2,3-d]pyrimidin-2-amine] |  | < 200 nM | 
Cc1c(Cl)cccc1-c1nc(N)nc2c1C[C@@H](C)N2 [Example 743, (6R)-4-(3-Chloro-2-methylphenyl)-6-methyl-5H,6H,7H-pyrrolo[2,3-d]pyrimidin-2-amine] |  | < 200 nM | 
Cc1c(Cl)cccc1-c1cc(NCCOc2ccc(Cl)cn2)nc(N)n1 [Example 746, 6-(3-chloro-2-methylphenyl)-N4-{2-[(5-chloropyridin-2-yl)oxy]ethyl}pyrimidine-2,4-diamine] |  | < 200 nM | 
Cc1c(Cl)cccc1-c1cc(NCCOc2ccc(C#N)cc2)nc(N)n1 [Example 747, 4-(2-{[2-amino-6-(3-chloro-2-methylphenyl)pyrimidin-4-yl]amino}ethoxy)benzonitrile] |  | < 200 nM | 

Source: patent US10632125B2, “MTH1 inhibitors for treatment of inflammatory and autoimmune conditions” (THOMAS HELLEDAYS STIFTELSE FÖR MEDICINSK FORSKNING, priority 2014, dated 2020)
